This assay concerns T1, soluble phosphatidic acid phosphatase (PAP), Mg2+-independent, partially purified from bitter melon cotyledons.
T1 construct: many copurified proteins, no PAP peptide found by LC/MS/MS
Briefly: Pi release, ammonium molybdate-acetone-acid, A355. The note with it: pH 6.5, 53°C, 0.3 mM MgCl2, 50 mM imidazole, DPA 0-500 µM, sigmoidal curve. Format: biochemical, Momordica charantia.

Experimental findings from publication PMC4159287, “Characterization of a Soluble Phosphatidic Acid Phosphatase in Bitter Melon (Momordica charantia)” (PLoS ONE, 2014) are described below.

For `CCCCCCCC/C=C\CCCCCCCC(=O)OC[C@H](COP(=O)(O)O)OC(=O)CCCCCCC/C=C\CCCCCCCC` [DPA, 1,2-dioleoyl-sn-glycero-3-phosphate], the Km (as a rule, the concentration of substrate that gives half-maximal velocity) came to 595 µM.
